Laboratory results: patent EP4813979A1, “COMPOUND FOR EGFR PROTEIN DEGRADATION AND USE THEREOF” (TYK Medicines, Inc., priority 2023, dated 2025)

Tested on: A431
Experiment: Cell anti-proliferation experiment (CTG)
Assay type: cell-based
Details: Homo sapiens, A-431, 72 h, A431 (wild-type EGFR), class symbol
Description: (§1) H1975 has an EGFR: T790M/L858R double mutation, PC-9 has an EGFR exon 19 deletion, and HCC827 has an exon 19 deletion mutation. Baf3-19del- T790M -C797S (Baf3-DTC) is a stable Ba/F3 clone expressing exogenous EGFR gene bearing T790M, C797S, and […] triple amino acid mutations, purchased from KYinno. Baf3-L858R-T790M - C797S (Baf3-LTC) is a stable Ba/F3 clone expressing exogenous EGFR gene bearing […], T790M, and C797S triple mutations, purchased from KYinno. A549 is a wild-type EGFR, purchased from Nanjing Kebai Biotechnology. A431 is a wild-type EGFR, purchased from Shanghai Xinyu Biotechnology. CellCounting-Lite2.0, Trypsin EDTA, 37°C CO2 incubator, cell counter, EnVision Serial No. 1050454.
(§2) • A) Digested logarithmic phase cells with Trypsin EDTA, added culture medium to stop the reaction, and mixing well with a pipette to prepare a cell suspension. • B) Used Vi-cell to determine cell concentration, and prepared a suspension of 15,000-25,000 cells per milliliter according to the experimental purpose and cell characteristics. • C) After prepared the cell suspension, mixed it gently and added 100 µL to each well, so that the cell density to be tested is 1500-2500 per well.
(§3) • A) Weighed approximately 2 mg the compound and calculated the required volume of DMSO according to the formula: Compound mass (mg) * Compound purity (%) / Compound molecular weight * 1000. • B) Placed the inoculated cell culture plate into an incubator and incubated for about 24 hours. Then added compounds of varying concentrations. • C) Diluted the 10mM compound stock solution to […] with culture medium, and added the […] compound solution to the second column of the deep well plate in sequence, and added […] culture medium containing 0.5% DMSO to the third to eleventh columns. • D) Gradient dilution: Taked 125 µL solution from the second column and added it to the third column, mix well; then taked 125 µL solution from the third column and added it to the fourth column, repeated this operation until the tenth column. • E) Used a multichannel pipette, aspirated 25 µL the compound from the deep-well plate and added it to a 96-well culture plate. Repeated this process three times for each compound on the 96-well plate. This will ultimately create a concentration gradient of up to 10,000 nM at a 1:4 ratio on the 96-well plate.
(§4) • A) The effects of the compound were observed under an inverted microscope after the 96-well plate was incubated in an incubator for 72 hours. • B) Added 25 µL CTG solution to each well, placed on a shaker for 10 minutes, and read the […] of each well.
(§5) Calculate the % Cell Viability using the following formula: %Cell Viability = 100% × (Lum_Sample−Lum_LC)/(Lum_HC−Lum_LC) [formula] • Lum_HC: Cell readings from the 0.1% DMSO control group • Lum_Sample: Cell readings with added compound • Lum_LC: Blank culture medium reading
(§6) The IC50 value was obtained by curve fitting using GraphPad Prism 8 software.

`CCc1cc(Nc2ncc(Cl)c(Nc3ccccc3C(=O)NC)n2)c(OC)cc1N1CC2(CN(C(=O)CN3CCC(c4cc5c(cc4F)c(N4CCC(=O)NC4=O)nn5C)C(F)(F)C3)C2)C1` (stereo not drawn) [TA-019] and `CCc1cc(Nc2ncc(Cl)c(Nc3ccccc3P3(=O)CCCC3)n2)c(OC)cc1N1CC2(CCN(C(=O)CN3CCC(c4cc5c(cc4F)c(N4CCC(=O)NC4=O)nn5C)C(F)(F)C3)CC2)C1` (stereo not drawn) [TB-005] cannot be ordered by IC50: over 1000 nM for the first, over 1000 nM for the second.

Work on `CCc1cc(Nc2ncc(Br)c(Nc3ccccc3P3(=O)CCCC3)n2)c(OC)cc1N1CC2(CCN(C(=O)CN3CCC(c4cc5c(cc4F)c(N4CCC(=O)NC4=O)nn5C)CC3)CC2)C1` [TB-008] yielded an IC50 of 100 to 1000 nM.

Tested on: A549
Experiment: Cell anti-proliferation experiment (CTG)
Assay type: cell-based
Details: Homo sapiens, A549, 72 h, A549 (wild-type EGFR), class symbol
Description: as §1, §2, §3, §4, §5, §6

`CCc1cc(Nc2ncc(Cl)c(Nc3ccccc3C(=O)NC)n2)c(OC)cc1N1CC2(CN(C(=O)CN3CCC(c4cc5c(cc4F)c(N4CCC(=O)NC4=O)nn5C)C(F)(F)C3)C2)C1` (stereo not drawn) [TA-019] and `CCc1cc(Nc2ncc(Cl)c(Nc3ccccc3P3(=O)CCCC3)n2)c(OC)cc1N1CC2(CCN(C(=O)CN3CCC(c4cc5c(cc4F)c(N4CCC(=O)NC4=O)nn5C)C(F)(F)C3)CC2)C1` (stereo not drawn) [TB-005] cannot be ordered by IC50: over 1000 nM for the first, over 1000 nM for the second.

`CCc1cc(Nc2ncc(Br)c(Nc3ccccc3P3(=O)CCCC3)n2)c(OC)cc1N1CC2(CCN(C(=O)CN3CCC(c4cc5c(cc4F)c(N4CCC(=O)NC4=O)nn5C)CC3)CC2)C1` [TB-008] showed an IC50 of 100 to 1000 nM.

Tested on: Baf3-19del- T790M -C797S (Baf3-DTC)
Experiment: Cell anti-proliferation experiment (CTG)
Assay type: cell-based
Details: 72 h, class symbol
Description: as §1, §2, §3, §4, §5, §6

`CCc1cc(Nc2ncc(Cl)c(Nc3ccccc3C(=O)NC)n2)c(OC)cc1N1CC2(CN(C(=O)CN3CCC(c4cc5c(cc4F)c(N4CCC(=O)NC4=O)nn5C)C(F)(F)C3)C2)C1` (stereo not drawn) [TA-019] and `CCc1cc(Nc2ncc(Cl)c(Nc3ccccc3P3(=O)CCCC3)n2)c(OC)cc1N1CC2(CCN(C(=O)CN3CCC(c4cc5c(cc4F)c(N4CCC(=O)NC4=O)nn5C)C(F)(F)C3)CC2)C1` (stereo not drawn) [TB-005] fall in the same range of IC50: 10 to 100 nM for the first, 10 to 100 nM for the second.

With `CCc1cc(Nc2ncc(Br)c(Nc3ccccc3P3(=O)CCCC3)n2)c(OC)cc1N1CC2(CCN(C(=O)CN3CCC(c4cc5c(cc4F)c(N4CCC(=O)NC4=O)nn5C)CC3)CC2)C1` [TB-008] the IC50 was 10 to 100 nM.

Tested on: Baf3-L858R-T790M - C797S (Baf3-LTC)
Experiment: Cell anti-proliferation experiment (CTG)
Assay type: cell-based
Details: 72 h, class symbol
Description: as §1, §2, §3, §4, §5, §6

`CCc1cc(Nc2ncc(Cl)c(Nc3ccccc3C(=O)NC)n2)c(OC)cc1N1CC2(CN(C(=O)CN3CCC(c4cc5c(cc4F)c(N4CCC(=O)NC4=O)nn5C)C(F)(F)C3)C2)C1` (stereo not drawn) [TA-019] and `CCc1cc(Nc2ncc(Cl)c(Nc3ccccc3P3(=O)CCCC3)n2)c(OC)cc1N1CC2(CCN(C(=O)CN3CCC(c4cc5c(cc4F)c(N4CCC(=O)NC4=O)nn5C)C(F)(F)C3)CC2)C1` (stereo not drawn) [TB-005] fall in the same range of IC50: 10 to 100 nM for the first, 10 to 100 nM for the second.

`CCc1cc(Nc2ncc(Br)c(Nc3ccccc3P3(=O)CCCC3)n2)c(OC)cc1N1CC2(CCN(C(=O)CN3CCC(c4cc5c(cc4F)c(N4CCC(=O)NC4=O)nn5C)CC3)CC2)C1` [TB-008] gave an IC50 of 10 to 100 nM.

Tested on: H1975
Experiment: Cell anti-proliferation experiment (CTG)
Assay type: cell-based
Details: Homo sapiens, NCI-H1975, 72 h, H1975 (EGFR T790M/L858R), class symbol
Description: as §1, §2, §3, §4, §5, §6

First: CCc1cc(Nc2ncc(Cl)c(Nc3ccccc3C(=O)NC)n2)c(OC)cc1N1CC2(CN(C(=O)CN3CCC(c4cc5c(cc4F)c(N4CCC(=O)NC4=O)nn5C)C(F)(F)C3)C2)C1 (stereo not drawn) [TA-019]
Second: CCc1cc(Nc2ncc(Cl)c(Nc3ccccc3P3(=O)CCCC3)n2)c(OC)cc1N1CC2(CCN(C(=O)CN3CCC(c4cc5c(cc4F)c(N4CCC(=O)NC4=O)nn5C)C(F)(F)C3)CC2)C1 (stereo not drawn) [TB-005]
The IC50 of the first is lower: under 10 nM for the first, 10 to 100 nM for the second.

In the case of `CCc1cc(Nc2ncc(Br)c(Nc3ccccc3P3(=O)CCCC3)n2)c(OC)cc1N1CC2(CCN(C(=O)CN3CCC(c4cc5c(cc4F)c(N4CCC(=O)NC4=O)nn5C)CC3)CC2)C1` [TB-008], the IC50 is reported as 10 to 100 nM.

Tested on: HCC827
Experiment: Cell anti-proliferation experiment (CTG)
Assay type: cell-based
Details: Homo sapiens, HCC827, 72 h, HCC827 (exon 19 deletion), class symbol
Description: as §1, §2, §3, §4, §5, §6

Compared with `CCc1cc(Nc2ncc(Cl)c(Nc3ccccc3C(=O)NC)n2)c(OC)cc1N1CC2(CN(C(=O)CN3CCC(c4cc5c(cc4F)c(N4CCC(=O)NC4=O)nn5C)C(F)(F)C3)C2)C1` (stereo not drawn) [TA-019], `CCc1cc(Nc2ncc(Cl)c(Nc3ccccc3P3(=O)CCCC3)n2)c(OC)cc1N1CC2(CCN(C(=O)CN3CCC(c4cc5c(cc4F)c(N4CCC(=O)NC4=O)nn5C)C(F)(F)C3)CC2)C1` (stereo not drawn) [TB-005] is lower in IC50: over 1000 nM for the first, 100 to 1000 nM for the second.

`CCc1cc(Nc2ncc(Br)c(Nc3ccccc3P3(=O)CCCC3)n2)c(OC)cc1N1CC2(CCN(C(=O)CN3CCC(c4cc5c(cc4F)c(N4CCC(=O)NC4=O)nn5C)CC3)CC2)C1` [TB-008] showed an IC50 of 10 to 100 nM.

Tested on: PC-9
Experiment: Cell anti-proliferation experiment (CTG)
Assay type: cell-based
Details: Homo sapiens, PC-9, 72 h, PC-9 (EGFR exon 19 deletion), class symbol
Description: as §1, §2, §3, §4, §5, §6

First: CCc1cc(Nc2ncc(Cl)c(Nc3ccccc3C(=O)NC)n2)c(OC)cc1N1CC2(CN(C(=O)CN3CCC(c4cc5c(cc4F)c(N4CCC(=O)NC4=O)nn5C)C(F)(F)C3)C2)C1 (stereo not drawn) [TA-019]
Second: CCc1cc(Nc2ncc(Cl)c(Nc3ccccc3P3(=O)CCCC3)n2)c(OC)cc1N1CC2(CCN(C(=O)CN3CCC(c4cc5c(cc4F)c(N4CCC(=O)NC4=O)nn5C)C(F)(F)C3)CC2)C1 (stereo not drawn) [TB-005]
The IC50 of the first is lower: 100 to 1000 nM for the first, over 1000 nM for the second.

`CCc1cc(Nc2ncc(Br)c(Nc3ccccc3P3(=O)CCCC3)n2)c(OC)cc1N1CC2(CCN(C(=O)CN3CCC(c4cc5c(cc4F)c(N4CCC(=O)NC4=O)nn5C)CC3)CC2)C1` [TB-008] gave an IC50 of 100 to 1000 nM.
